Experimental data from US8227422B2, “Peptides and compounds that bind to a receptor” (Glaxosmithkline LLC, priority 1996, dated 2012).
Values joined by “and” are separate entries in the source; they are usually repeats but may differ in a detail not shown here. Identical values can stand only once.

What was measured:
[1] = tested on: marrow cells of Balb/C mice (mouse receptor); assay: Mouse marrow cells in liquid culture, AChE-positive megakaryocyte outgrowth; assay type: cell-based; details: for Response (AChE-positive megakaryocytes): 7 days liquid culture
Protocol: To assess the feasibility of mice as a convenient test species, several in vitro experiments, designed to measure the activity of the test compounds on the mouse receptor, have been done. First, marrow cells, harvested from the femurs of 8 to 9 week one Balb/C mice, were incubated for 7 days in liquid culture with either rhuTPO or various concentrations of the test peptides. At the end of the incubation period, the cultures were concentrated by Cytospin, stained for acetylcholinesterase (AChE, a diagnostic of mouse megakaryocytes), and counted by microscopic analysis. One (X) nM rhuTPO gave rise to the outgrowth of very large (>40 um) non-adherent cells that stain for AChE. These cells appear to be mature megakaryocytes. From an initial seeding of 10^6 total marrow cells/ml (in 50 ml cultures) an estimated 1 to 2×10^6 megakaryocytes developed. This responce to TPO was designated as “maximal”. Control cultures containing no added growth factors produced very few AChE-positive cells. […] This finding was the first evidence that this peptide family is active on the murine receptor. In a second experiment, marrow cells were harvested and cultured in semi-solid medium (methylcellulose) containing either no factors, 1 nM rhuTPO, or 10 uM Peptide A. After 7 days in culture, colonies of large cell (presumed to be megakaryocytes) were counted and grouped into small colonies (3-5 cells) or large colonies (greater than 6 cells). TPO and the test peptides both produced substantially more colonies of both sized than did the negative control cultures.

[2] = tested on: marrow cells (Mk precursor cell population); assay: Mouse marrow cells in semi-solid medium (methylcellulose), colonies of large cells; assay type: cell-based; details: 1 nM TPO; 7 days in methylcellulose; replicates #1-1 to #2-2
Protocol: To assess the feasibility of mice as a convenient test species, several in vitro experiments, designed to measure the activity of the test compounds on the mouse receptor, have been done. First, marrow cells, harvested from the femurs of 8 to 9 week one Balb/C mice, were incubated for 7 days in liquid culture with either rhuTPO or various concentrations of the test peptides. At the end of the incubation period, the cultures were concentrated by Cytospin, stained for acetylcholinesterase (AChE, a diagnostic of mouse megakaryocytes), and counted by microscopic analysis. One (X) nM rhuTPO gave rise to the outgrowth of very large (>40 um) non-adherent cells that stain for AChE. These cells appear to be mature megakaryocytes. From an initial seeding of 10^6 total marrow cells/ml (in 50 ml cultures) an estimated 1 to 2×10^6 megakaryocytes developed. This responce to TPO was designated as “maximal”. Control cultures containing no added growth factors produced very few AChE-positive cells. […] In a second experiment, marrow cells were harvested and cultured in semi-solid medium (methylcellulose) containing either no factors, 1 nM rhuTPO, or 10 uM Peptide A. After 7 days in culture, colonies of large cell (presumed to be megakaryocytes) were counted and grouped into small colonies (3-5 cells) or large colonies (greater than 6 cells). […]

| Substance | Response (AChE-positive megakaryocytes) ([1]; 1000 nM (putative 1:4 complex), maximal = 25–30% AChE staining cells) | colonies of 3–5 large cells [2] | colonies of 6–12 large cells [2] | Response (AChE-positive megakaryocytes) ([1]; 1 nM) | megakaryocytes developed ([1]; One (X) nM rhuTPO, initial seeding 10^6 total marrow cells/ml (50 ml cultures), 7 days) |
| --- | --- | --- | --- | --- | --- |
| S.A. alone: streptavidin alone [reference compound] | none |  |  |  |  |
| TPO: recombinant human TPO (thrombopoietin) |  | 15 and 12 and 16 and 13 | 6 and 1 and 8 and 3 | “maximal” | 1 to 2×10^6 megakaryocytes |
